Test system: CAIA-induced C57BL/6 mice
Assay: Collagen antibody-induced arthritis (CAIA) model
Type: in vivo, mouse
Conditions: 5 mg/kg, p.o. daily
Method: 14. Induction of rheumatoid arthritis in C57BL/6 mice: To induce rheumatoid arthritis, anti-collagen-II mAbs (CII-Ab, Arthrogen-CIA Arthritogenic Monoclonal Antibody, #53010: Chondrex, Inc., WA, USA) were intraperitoneally (i.p.) injected into 7-week-old male mice on the first day, and 50 μg of LPS was injected on the third day. To evaluate the severity of arthritis, a scoring system was applied according to the criteria.
0. No erythema and swelling are observed.
1. Slight erythema is observed in tarsals and ankle joints.
2. Slight erythema and swelling are observed from an ankle joint to the midfoot.
3. Erythema and swelling extending from ankle joints to the metatarsals are observed.
4. Erythema and severe swelling were observed throughout the ankles, feet, and fingers.
The sum of final scores was recorded daily until the sum reached 16. On the 18th day, each of the mice was anesthetized, and then located on a radiographic view box. Thereafter, a location of each of the mice was adjusted so that the mouse was disposed at a distance of 90 cm from an X-ray source. The radioanalysis on hind legs with arthritis was performed by irradiating the hind legs at […] for 0.01 seconds using an X-ray machine (BLD-150RK, Hradec Kralove, Czech Republic).
15. Immunohistochemical assay: An immunohistochemical assay was carried out using an avidin-biotin-peroxidase method known in the art. Each of joint tissue samples collected from the mice was fixed with formalin, and embedded in paraffin. These samples were continuously microtomed into sections with a thickness of 4 μm. Each of the sections was stained with haematoxylin/eosin (H&E), anti-COX-2 and anti-iNOS antibodies (Caymen Chemical, Ann Arbor, Mich.).
Referring to FIG. 10(A), MMPP (5 mg/kg, p.o.) (dissolved in 100 μL of PBS including 0.5 μL of DMSO), a vehicle (a negative control), or indomethacin (5 mg/kg, p.o./dissolved in […] of PBS after the dissolution) was administered daily to 7-week-old male C57BL/6 mice for 18 days.

Compound: COc1ccc2c(c1)c(CC(=O)O)c(C)n2C(=O)c1ccc(Cl)cc1 [indomethacin, reference compound]
- clinical score lower than that of the CAIA group: 64.8%

Reference: patent US10265276B2, “Pharmaceutical composition for preventing or treating arthritis or inflammatory disease containing 2-methoxy-4-(3-(4-methoxyphenyl)propyl-1-en-1-yl)phenol as active ingredient” (CHUNGBUK NATIONAL UNIVERSITY INDUSTRY-ACADEMIC COOPERATION …, priority 2015, dated 2019)
